The source of these data is paper PMC3827828, “Novel angiotensin I-converting enzyme inhibitory peptides derived from an edible mushroom, Pleurotus cystidiosus O.K. Miller identified by LC-MS/MS” (BMC Complementary and Alternative Medicine, 2013).

pIC50: −log10 of the molar value. “Also recorded” adds a separate entry of the source. Read-outs that look alike come from different tables or passages of the source. Peptide text beside a SMILES is read from it.

One data set deals with ACE. To be noted: cited from earlier work. The protocol: Peptide LRIPVA from spinach inhibited 50% of the ACE at a concentration as low as 0.38 μM [29]. However, there were also studies reported on similar IC50 value with the current study. […] It was predicted to remain stable throughout the digestion process. […] Jimsheena and Gouda had shown the important role of stere ... || (+ 2 further places)

Data set [1] deals with T1, Angiotensin I-converting enzyme (ACE) (Homo sapiens, UniProt P12821).
T1 construct: purchased Dojindo Laboratories ACE kit-WST
The experiment in a line: ACE inhibitory activity assay (ACE kit-WST). To be noted: synthesised peptide, absorbance 450 nm, triplicate, mean ± standard deviation. It is filed as biochemical. The protocol: (§1) In the current study, ACE inhibitory activity was determined using an ACE inhibitory assay kit (ACE kit-WST, Dojindo Laboratories, Kumamoto, Japan). The assay was carried out according to the protocol provided by the manufacturer. Absorbances of the reactions were measured using a Sunrise® ELISA microplate reader (Tecan, Grödig, Austria) at 450 nm. The ACE inhibitory activity of the samples was calculated using the formula given in the protocol. The concentration of the ACE inhibitor required to inhibit 50% of ACE activity under the above assay conditions was defined as the IC50.
The analysis of ACE inhibitory activity was carried out in triplicate and result was reported as mean ± standard deviation. Mean differences of ACE inhibitory activity in SEC fractions was analyzed using one-way ANOVA in Statgraphics Plus 3.0 at p < 0.05.

Data set [2] addresses T1, Angiotensin I-converting enzyme (ACE). The data set can be described thus: ACE inhibitory activity after simulated gastrointestinal digestion. As to conditions: mean, n = 3; for inhibition at 100 µg/mL (stock): 0.1 mg/ml, pepsin 2.5 hrs, then pH 8.0, 0.025% chymotrypsin and 0.025% trypsin, another 2.5 hrs, read-out: ACE inhibitory activity after pepsin-pancreatin digestion; for inhibition at 100 µg/mL (stock) / ACE inhibitory activity after digestion by pepsin: 37°C; for ACE inhibitory activity without gastrointestinal digestion (control): peptide solution 0.1 mg/ml incubated in buffer solutions (HCl and potassium phosphate buffer); for ACE inhibitory activity after digestion by pepsin: peptide solution 0.1 mg/ml with 0.05% pepsin (0.1 M HCl, pH 2.0), 2.5 hrs. Format: biochemical. The protocol:
as §1
(§2) The stability of the synthesised peptides against gastrointestinal proteases was assessed in vitro by the method of Wu and Ding. The peptide solution (0.1 mg/ml, 0.5 ml) was incubated with 0.5 ml of a 0.05% pepsin solution (0.1 M HCl at pH 2.0) for 2.5 hrs at 37°C. In the successive pepsin-pancreatin digestion test, the peptide solution was adjusted to pH 8.0 after pepsin digestion. Then, 0.5 ml of pancreatin solution [potassium phosphate buffer (0.1 M, pH 8.0) containing 0.025% (w/v) chymotrypsin and 0.025% (w/v) trypsin] was added to the solution. The mixture was incubated for another 2.5 hrs at 37°C. The control (without digestion) consisted of peptide solution incubated in buffer solutions (HCl and potassium phosphate buffer) and was carried out alongside the experiment. After enzymatic treatment, the pepsin solution and pepsin-pancreatin solution were boiled for 10 min to stop the digestion and then centrifuged at 10,000 rpm for 10 min. The supernatants were freeze-dried and used for the measurement of ACE inhibitory activity. The stability of the purified peptides against gastrointestinal enzymes was analysed by SEC.
Figure 3 Effect of simulated gastrointestinal digestion on the ACE inhibitory activity of peptides AHEPVK and GPSMR. Control: The peptide solutions (0.1 mg/ml) were incubated in buffer solutions (HCl and potassium phosphate buffer). P: The peptide solutions were incubated with 0.05% pepsin solution for 2.5 hrs at 37°C. P + T + C: The peptide solutions were successively digested with pepsin for 2.5 hrs. They were further incubated in pancreatin solution for another 2.5 hrs at 37°C. The ACE inhibitory activity are expressed as mean ± standard deviation (n = 3).

The subject of data set [3] is pepsin, trypsin and chymotrypsin. The data set can be described thus: Stability against gastrointestinal enzymes observed by SEC. As to conditions: 0.1 mg/ml; pepsin pH 2.0 2.5 hrs, then trypsin + chymotrypsin pH 8.0 2.5 hrs, 37°C; Biosep SEC-S2000, UV 214 nm. It is filed as in vitro ADME. The protocol:
as §2
Figure 4 Stability of peptide AHEPVK against gastrointestinal enzymes observed by SEC chromatograms. Separation was performed on a Biosep SEC-S2000 column (300 × 7.8 mm). Mobile phase consisted of 45% acetonitrile containing 0.1% TFA eluted at a flow rate of 1.0 ml/min. […]
For orientation: In gel filtration, larger molecules generally elute earlier.

Where [4] appears, read: peptides from milk and bonita fish.

T1 sequence (P12821 30-1306, species assumed): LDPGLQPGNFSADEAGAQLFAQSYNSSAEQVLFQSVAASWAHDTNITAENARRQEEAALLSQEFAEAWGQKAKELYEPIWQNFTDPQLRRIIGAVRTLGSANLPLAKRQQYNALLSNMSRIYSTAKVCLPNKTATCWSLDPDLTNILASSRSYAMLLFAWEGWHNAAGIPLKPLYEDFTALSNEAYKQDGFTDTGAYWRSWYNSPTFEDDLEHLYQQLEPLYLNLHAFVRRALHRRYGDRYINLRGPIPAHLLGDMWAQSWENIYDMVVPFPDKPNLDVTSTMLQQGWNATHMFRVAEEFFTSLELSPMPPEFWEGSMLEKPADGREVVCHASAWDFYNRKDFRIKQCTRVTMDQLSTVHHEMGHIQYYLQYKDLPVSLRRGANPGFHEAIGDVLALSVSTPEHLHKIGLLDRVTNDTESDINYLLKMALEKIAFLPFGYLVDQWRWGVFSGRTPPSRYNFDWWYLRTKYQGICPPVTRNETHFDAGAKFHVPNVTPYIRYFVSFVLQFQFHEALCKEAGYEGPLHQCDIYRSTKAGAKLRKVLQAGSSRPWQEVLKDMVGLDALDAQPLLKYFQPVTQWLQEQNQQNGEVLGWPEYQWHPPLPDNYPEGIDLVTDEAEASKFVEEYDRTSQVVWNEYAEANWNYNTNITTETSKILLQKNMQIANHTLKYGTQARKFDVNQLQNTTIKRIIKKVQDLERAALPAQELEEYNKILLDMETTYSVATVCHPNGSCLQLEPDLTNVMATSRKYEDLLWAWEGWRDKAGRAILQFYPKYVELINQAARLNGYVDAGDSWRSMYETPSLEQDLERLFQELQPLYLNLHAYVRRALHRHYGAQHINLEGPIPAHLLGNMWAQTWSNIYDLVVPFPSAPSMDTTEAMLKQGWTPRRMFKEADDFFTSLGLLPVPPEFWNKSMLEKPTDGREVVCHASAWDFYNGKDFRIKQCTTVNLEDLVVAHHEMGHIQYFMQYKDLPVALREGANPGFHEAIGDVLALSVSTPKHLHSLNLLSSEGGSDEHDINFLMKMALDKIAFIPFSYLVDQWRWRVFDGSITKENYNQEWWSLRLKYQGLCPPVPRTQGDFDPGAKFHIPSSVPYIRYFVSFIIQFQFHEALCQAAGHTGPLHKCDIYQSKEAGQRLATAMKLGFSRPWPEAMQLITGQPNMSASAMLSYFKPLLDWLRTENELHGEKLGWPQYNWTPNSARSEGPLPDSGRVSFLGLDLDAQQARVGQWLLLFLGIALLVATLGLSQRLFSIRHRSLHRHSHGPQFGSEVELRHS

As to `C[C@H](CS)C(=O)N1CCC[C@H]1C(=O)O` [captopril], the “Inhibition pattern against ACE” value in the data set with ACE is given as “competitive manner”.

What is called pIC50 is the negative decadic logarithm of the IC50, by convention in mol/L. Take LKPNM [pentapeptide from bonita fish]: in the data set with ACE (setting [4]), the pIC50 is 5.62.

In data set [1], `CSCC[C@H](NC(=O)[C@H](CO)NC(=O)[C@@H]1CCCN1C(=O)CN)C(=O)N[C@@H](CCCNC(=N)N)C(=O)O` [GPSMR] (H-GPSMR-OH) had a pIC50 of 3.56. For the same compound, in data set [2], the inhibition at 100 µg/mL (stock) was 96%, the “ACE inhibitory activity without gastrointestinal digestion (control)” value is 67.08% and the “ACE inhibitory activity after digestion by pepsin” value is given as 92.22%. In addition, in data set [3], the “Stability of peptide against gastrointestinal enzymes (SEC chromatograms)” value is given as “hydrolysed after digestion; also recorded: hydrolysed into smaller fragments”.

In the case of LRIPVA [peptide from spinach], the pIC50 in the data set on ACE (peptide from spinach) was 6.42.

Regarding GTEKC [peptide from sweet potato], in the data set on ACE (peptides from sweet potato), the pIC50 is 4.21.

Take GPCSR [peptide from sweet potato]: the pIC50 in the data set with ACE (peptides from sweet potato) was 3.56.

Consider PYVRYL [hexapeptide from milk], for which, in the data set with ACE (setting [4]), the pIC50 is 5.62.

In data set [1], `CC(C)[C@H](NC(=O)[C@@H]1CCCN1C(=O)[C@H](CCC(=O)O)NC(=O)[C@H](Cc1c[nH]cn1)NC(=O)[C@H](C)N)C(=O)N[C@@H](CCCCN)C(=O)O` [AHEPVK] (H-AHEPVK-OH) showed a pIC50 of 4.20. In data set [2], the inhibition at 100 µg/mL (stock) was 95.9%, the “ACE inhibitory activity without gastrointestinal digestion (control)” value is listed as 80.27% and the “ACE inhibitory activity after digestion by pepsin” value is given as 95.38%. Further, the “Stability of peptide against gastrointestinal enzymes (SEC chromatograms)” value in data set [3] was “stable throughout gastrointestinal digestion; also recorded: confirmed the stability of AHEPVK against digestive enzymes; also recorded: remained stable following gastrointestinal digestion”.
